Several values for one entry are separate records, joined by “and”; a condition that tells them apart may be missing. Equal values may be shown once. Inconclusive results and toxic doses are left out. No stated cut-off is given here; in the data, active means T/C of 150% or more; inactive means T/C below 125%.
Test system: L1210 leukemia ip in BDF1 mice, survival T/C
Assay: NCI In Vivo Anticancer Drug Screen. Data for tumor model L1210 Leukemia (intraperitoneal) in B6D2F1 (BDF1) mice
Conditions: endpoint: mean survival time, higher = longer survival
How it was run: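 Antitumor effect is assessed in tumor-bearing animals. Survival in the compound arm is compared with a vehicle-dosed control arm and expressed as their quotient.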

[1] = dose: 25.0 mg/kg/injection, schedule: Q04DX003 (ip), vehicle: saline
[2] = dose: 50.0 mg/kg/injection, schedule: Q01DX009 (ip), vehicle: saline
[3] = dose: 50.0 mg/kg/injection, schedule: Q04DX003 (ip), vehicle: saline
[4] = dose: 100.0 mg/kg/injection, schedule: Q04DX003 (ip), vehicle: saline
[5] = dose: 100.0 mg/kg/injection, schedule: Q01DX001 (ip), vehicle: saline
[6] = dose: 200.0 mg/kg/injection, schedule: Q01DX001 (ip), vehicle: saline
[7] = dose: 400.0 mg/kg/injection, schedule: Q01DX001 (ip), vehicle: saline
[8] = dose: 100.0 mg/kg/injection, schedule: Q01DX009 (ip), vehicle: saline with Tween-80
[9] = dose: 200.0 mg/kg/injection, schedule: Q01DX009 (ip), vehicle: saline with Tween-80
[10] = dose: 50.0 mg/kg/injection, schedule: Q01DX001 (ip), vehicle: saline
[11] = dose: 100.0 mg/kg/injection, schedule: Q04DX003 (ip), vehicle: saline with Tween-80
[12] = dose: 200.0 mg/kg/injection, schedule: Q04DX003 (ip), vehicle: saline with Tween-80
[13] = dose: 400.0 mg/kg/injection, schedule: Q04DX003 (ip), vehicle: saline with Tween-80
[14] = dose: 100.0 mg/kg/injection, schedule: Q04DX002 (ip), vehicle: saline with Tween-80
[15] = dose: 50.0 mg/kg/injection, schedule: Q01DX009 (ip), vehicle: saline with Tween-80
[16] = dose: 100.0 mg/kg/injection, schedule: Q01DX009 (ip), vehicle: saline
[17] = dose: 100.0 mg/kg/injection, schedule: Q01DX005 (ip), vehicle: saline
[18] = dose: 200.0 mg/kg/injection, schedule: Q01DX005 (ip), vehicle: saline

Measured: T/C

CN1CC(C(=O)N2CCCCC2)C=C2c3cccc4[nH]cc(c34)CC21 (stereo unspecified)
inactive: dose: 3.12 mg/kg/injection, schedule: Q01DX009 (ip), vehicle: saline 95 % of control | dose: 6.25 mg/kg/injection, schedule: Q01DX009 (ip), vehicle: saline 97 % of control | dose: 12.5 mg/kg/injection, schedule: Q01DX009 (ip), vehicle: saline 98 % of control | dose: 25.0 mg/kg/injection, schedule: Q01DX009 (ip), vehicle: saline 104 % of control | [1] 100 % of control | [2] 93 % of control | [3] 98 % of control | [4] 97 % of control

CC(=O)Nc1ccc(S(=O)(=O)O)c(OC(C)=O)c1
inactive: [5] 100 % of control | [6] 93 % of control | [7] 114 % of control

CCn1c(C)cc(O)cc1=O
inactive: [8] 94 % of control | [9] 92 % of control | dose: 400.0 mg/kg/injection, schedule: Q01DX009 (ip), vehicle: saline with Tween-80 94 % of control

CCCCOC(N)=O
inactive: [10] 105 % of control | [5] 95 % of control | [11] 95 % of control and 100 % of control | [6] 93 % of control | [12] 95 % of control and 97 % of control | [7] 98 % of control | [13] 97 % of control and 102 % of control

O=[N+]([O-])c1ccccc1/C=C/C=N/N=C/c1ccccc1O
inactive: dose: 75.0 mg/kg/injection, schedule: Q01DX001 (ip), vehicle: other 94 % of control | dose: 150.0 mg/kg/injection, schedule: Q01DX001 (ip), vehicle: other 95 % of control | dose: 300.0 mg/kg/injection, schedule: Q01DX001 (ip), vehicle: other 88 % of control

CCO/C=C1\SC(=S)N(Cc2ccccc2)C1=O
inactive: [11] 94 % of control | [12] 99 % of control | [13] 102 % of control

CC1(C)N=C(N)N=C(N)N1c1cccc(CCCCC(=O)CCl)c1
inactive: dose: 12.5 mg/kg/injection, schedule: Q04DX003 (ip), vehicle: saline 109 % of control | [1] 102 % of control | [3] 110 % of control

CC(C)C(C#Cc1ccccc1)N1CCCCC1 (stereo unspecified)
inactive: [14] 103 % of control | dose: 200.0 mg/kg/injection, schedule: Q04DX002 (ip), vehicle: saline with Tween-80 87 % of control | dose: 400.0 mg/kg/injection, schedule: Q04DX002 (ip), vehicle: saline with Tween-80 97 % of control

O=C(NC(c1ccccc1)c1ccccc1)c1ccccc1
inactive: dose: 25.0 mg/kg/injection, schedule: Q01DX009 (ip), vehicle: saline with Tween-80 88 % of control | dose: 25.0 mg/kg/injection, schedule: Q04DX003 (ip), vehicle: saline with Tween-80 97 % of control | [10] 97 % of control | [15] 88 % of control | dose: 50.0 mg/kg/injection, schedule: Q04DX003 (ip), vehicle: saline with Tween-80 94 % of control | [5] 91 % of control | [8] 88 % of control | [11] 89 % of control

Cc1cc(C)c(Br)cc1N
inactive: dose: 100.0 mg/kg/injection, schedule: Q01DX001 (ip), vehicle: Klucel (hydroxypropylcellulose) (HPC) 90 % of control | dose: 200.0 mg/kg/injection, schedule: Q01DX001 (ip), vehicle: Klucel (hydroxypropylcellulose) (HPC) 95 % of control | dose: 400.0 mg/kg/injection, schedule: Q01DX001 (ip), vehicle: Klucel (hydroxypropylcellulose) (HPC) 102 % of control

C#CP(CCCC)CCCC
inactive: dose: 25.0 mg/kg/injection, schedule: Q04DX002 (ip), vehicle: saline with Tween-80 97 % of control | dose: 50.0 mg/kg/injection, schedule: Q04DX002 (ip), vehicle: saline with Tween-80 91 % of control | [14] 95 % of control and 102 % of control

Oc1ccc(Cl)c2cccnc12
inactive: dose: 4.0 mg/kg/injection, schedule: Q01DX015 (ip), vehicle: carboxymethylcellulose (CMC) 103 % of control | dose: 8.0 mg/kg/injection, schedule: Q01DX015 (ip), vehicle: carboxymethylcellulose (CMC) 106 % of control | dose: 16.0 mg/kg/injection, schedule: Q01DX015 (ip), vehicle: carboxymethylcellulose (CMC) 103 % of control | dose: 32.0 mg/kg/injection, schedule: Q01DX015 (ip), vehicle: carboxymethylcellulose (CMC) 95 % of control | dose: 64.0 mg/kg/injection, schedule: Q01DX015 (ip), vehicle: carboxymethylcellulose (CMC) 102 % of control | dose: 100.0 mg/kg/injection, schedule: Q01DX001 (ip), vehicle: carboxymethylcellulose (CMC) 90 % of control | dose: 128.0 mg/kg/injection, schedule: Q01DX015 (ip), vehicle: carboxymethylcellulose (CMC) 100 % of control | dose: 200.0 mg/kg/injection, schedule: Q01DX001 (ip), vehicle: carboxymethylcellulose (CMC) 103 % of control

CC(=O)N(CCCc1ccccc1)C(C)(C)C
inactive: [2] 104 % of control | [5] 110 % of control | [16] 110 % of control | [6] 114 % of control

NNc1nc(Cl)cc2c1ncn2C1OC(CO)C(O)C1O (stereo unspecified)
inactive: [17] 98 % of control | [18] 113 % of control

CCOC(=O)C1C(=O)C2CCc3c(ccc4ccccc34)N2C1=O (stereo unspecified)
inactive: dose: 100.0 mg/kg/injection, schedule: Q04DX003 (ip), vehicle: Klucel (hydroxypropylcellulose) (HPC) 98 % of control | dose: 200.0 mg/kg/injection, schedule: Q04DX003 (ip), vehicle: Klucel (hydroxypropylcellulose) (HPC) 104 % of control

COc1ccc(OC(=O)Nc2ccc(Cl)cc2Cl)cc1
inactive: [15] 102 % of control | [8] 91 % of control | [9] 98 % of control

CSC1SCC2C(=O)N(C)C(C(C)C)C(=O)OCC(NC(=O)c3cnc4ccccc4n3)C(=O)NC(C)C(=O)N(C)C1C(=O)N(C)C(C(C)C)C(=O)OCC(NC(=O)c1cnc3ccccc3n1)C(=O)NC(C)C(=O)N2C (stereo unspecified)
inactive: dose: 0.4 micrograms/kg/injection, schedule: Q01DX009 (ip), vehicle: saline with Tween-80 97 % of control | dose: 0.9 micrograms/kg/injection, schedule: Q01DX009 (ip), vehicle: saline with Tween-80 102 % of control | dose: 1.9 micrograms/kg/injection, schedule: Q01DX009 (ip), vehicle: saline with Tween-80 97 % of control | dose: 3.8 micrograms/kg/injection, schedule: Q01DX009 (ip), vehicle: saline with Tween-80 102 % of control | dose: 7.5 micrograms/kg/injection, schedule: Q01DX009 (ip), vehicle: saline with Tween-80 115 % of control | dose: 15.0 micrograms/kg/injection, schedule: Q01DX009 (ip), vehicle: saline with Tween-80 117 % of control

CN/N=C/c1[nH]c(=O)[nH]c(=O)c1C
inactive: [5] 93 % of control | [6] 96 % of control | [7] 104 % of control

O=C1C(=O)C2(O)C(=O)C12O (stereo unspecified)
inactive: [4] 91 % of control

CC(=O)Nc1cccc(OC(=O)Nc2cccc(Cl)c2Cl)c1
inactive: dose: 100.0 mg/kg/injection, schedule: Q01DX009 (ip), vehicle: Klucel (hydroxypropylcellulose) (HPC) 97 % of control | dose: 200.0 mg/kg/injection, schedule: Q01DX009 (ip), vehicle: Klucel (hydroxypropylcellulose) (HPC) 102 % of control | dose: 400.0 mg/kg/injection, schedule: Q01DX009 (ip), vehicle: Klucel (hydroxypropylcellulose) (HPC) 103 % of control

CCCN(CCC)N=Nc1ccccc1C(N)=O
inactive: dose: 100.0 mg/kg/injection, schedule: Q01DX001 (ip), vehicle: other 107 % of control | [8] 90 % of control | [11] 104 % of control | dose: 200.0 mg/kg/injection, schedule: Q01DX001 (ip), vehicle: other 102 % of control | [9] 102 % of control | [12] 94 % of control | dose: 400.0 mg/kg/injection, schedule: Q01DX001 (ip), vehicle: other 103 % of control | [13] 98 % of control

Nc1nc(Cl)cc2c1ncn2C1OC(CO)C(O)C1O (stereo unspecified)
inactive: [17] 105 % of control | [18] 107 % of control

C#CC(=O)OCC#CCOC(=O)C#C
inactive: dose: 1.56 mg/kg/injection, schedule: Q01DX009 (ip), vehicle: saline with Tween-80 111 % of control | dose: 3.12 mg/kg/injection, schedule: Q01DX009 (ip), vehicle: saline with Tween-80 101 % of control | dose: 6.25 mg/kg/injection, schedule: Q01DX009 (ip), vehicle: saline with Tween-80 87 % of control and 90 % of control

NC(Cc1ccccc1)c1ccccc1 (stereo unspecified) (tested in a mixture with another compound)
inactive: [4] 89 % of control and 95 % of control | dose: 200.0 mg/kg/injection, schedule: Q04DX003 (ip), vehicle: saline 89 % of control

O=C(N/N=C/c1ccncc1)c1ccccc1
inactive: [16] 112 % of control | dose: 200.0 mg/kg/injection, schedule: Q01DX009 (ip), vehicle: saline 112 % of control
